In patent US12662462B2, “Salts of pyridinylmethylenepiperidine derivatives and uses thereof” (SUNSHINE LAKE PHARMA CO., LTD., priority 2020, dated 2026):
Like-named read-outs stand apart in the source and are kept apart here.

Legend:
[1] = Pharmacokinetic experiment in Beagle dogs; format: in vivo, Beagle dog; details: oral capsules, 5 mg/kg
Description: The inventors conducted a pharmacokinetic evaluation of the salt or its crystal form of the present invention in Beagle dogs.
The test sample (i.e., the salt or crystal form of the present invention, or the compound having formula (I) of the present invention) was filled into capsules for oral administration. The animals were fasted for 12 h before the administration, and they had free drinking water. Capsules containing test samples were administered orally at a dose of 5 mg/kg. After administration, intravenous blood was collected at the following time points (about 0.15 mL of blood taken): 0.25, 0.5, 1.0, 2.0, 4.0, 6.0, 8.0 and 24 h. EDTA-K2 was added as an anticoagulant in the blood collection tube in advance, the blood sample was centrifuged at 12,000 rpm for 2 minutes, the plasma was collected, and stored at −20° C. or −70° C.
After processing the plasma samples collected above (after the frozen plasma was thawed at room temperature, it was whirled for 5 minutes to mix well, then 20 μL of plasma was taken, 120 μL of acetonitrile solution containing internal standard was added, the mixture was whirled for 5 minutes to mix well, and centrifuged at 4,000 rpm for 5 minutes, then 100 μL of the supernatant was taken, 130 μL of methanol-water (V/V=1/1) was added to mix well), a standard curve with a suitable range was established according to the concentration of the test sample, and the LC-MS/MS with AB SCIEX API5500 was used, the concentration of the test sample in the plasma sample was determined in the MRM mode, and quantitative analysis was performed. Pharmacokinetic parameters were calculated according to drug concentration-time curve using a non-compartmental method by WinNonLin 6.3 software.

[2] = Stability experiment (high temperature, high humidity, light); format: physicochemical
Description: (§1) (1) High temperature experiment: an appropriate amount of a batch of test samples were taken into flat weighing bottles, and spread into a thin layer ≥5 mm thick. The above weighing bottles were placed in a constant temperature box at 40° C.±2° C./75%±5% RH and/or 60° C.±2° C./75%±5% RH for 30 days, the samples were taken on the 5th, 10th, and 30th days, and tested according to the key stability inspection items: the color changes of the samples were observed, the purities of the samples were checked by HPLC, and the structure of the samples were analyzed by X-ray powder diffraction.
as §1, with “(2)” for “(1)”, “humidity” for “temperature”, “placed” for “placed in a constant temperature box”, “25° C.,” for “40° C.±2° C./75%±5%”, “75%±5% or RH 90%±5%” for “and/or 60° C.±2° C./75%±5%”, “structures” for “structure”
as §1, with “(3) Light” for “(1) High temperature”, “placed and opened” for “placed”, “light” for “constant temperature”, “box (with UV)” for “box”, “the illuminance 4500±500 lx, UV light ≤0.7 w·h/m^2” for “40° C.±2° C./75%±5% RH and/or 60° C.±2° C./75%±5% RH”, “structures” for “structure”

[3] = Hygroscopicity experiment; format: physicochemical; details: 25° C., saturated ammonium chloride solution desiccator, 24 hours
Description: 1) A dry stoppered glass weighing bottle (outer diameter of 50 mm, height of 15 mm) was taken the day before, and placed in a 25° C.±1° C. constant temperature desiccator (a saturated ammonium chloride solution was placed at the bottom), and the weighing bottle was weighed accurately (m1).
2) An appropriate amount of the test sample was taken, and spread flat in the above weighing bottle, the thickness of the test sample was generally about 1 mm, and the weighing bottle was weighed accurately (m2).
3) The weighing bottle was open and placed under the above constant temperature and humidity conditions with the bottle cap for 24 hours.
4) The bottle cap was covered on the weighing bottle, and weighed accurately (m3), and calculate: the percentage increase in weight %=(m3−m2)/(m2−m1)×100%

[4] = Solubility experiment in water; format: physicochemical
Description: The solubility of the present invention was determined using an Agilent 1200 High Performance Liquid Chromatograph DAD/VWD detector with an Agilent XDB-C18 model (4.6×50 mm, 5 μm). Detection wavelength was 266 nm, flow rate was 1.0 mL/min, the column temperature was 35° C., mobile phase A: acetonitrile: 0.01 M ammonium acetate=10:90 (V:V), analysis methods: acetonitrile: mobile phase A=70:30 (V:V), running time was 10 minutes.
The test sample was taken into 37° C. organic ultrapure water to prepare a supersaturated solution. After shaking for 24 h, the mixture was filtered with an aqueous filter membrane to obtain the filtrate. The solubility of the test sample in water was detected by HPLC.

[5] = High humidity (25° C., RH 75% ± 5%), the 5th day
[6] = High humidity (25° C., RH 75% ± 5%), the 10th day
[7] = High humidity (25° C., RH 75% ± 5%), the 30th day
[8] = High humidity (25° C., RH 90% ± 5%), the 5th day
[9] = High humidity (25° C., RH 90% ± 5%), the 10th day
[10] = High humidity (25° C., RH 90% ± 5%), the 30th day
[11] = High temperature (40° C.), the 5th day
[12] = High temperature (40° C.), the 10th day
[13] = High temperature (40° C.), the 30th day
[14] = High temperature (60° C.), the 5th day
[15] = High temperature (60° C.), the 10th day
[16] = High temperature (60° C.), the 30th day

**Q.** Which AUClast [1] does the source give for `CN1CCC(=C(F)c2cccc(NC(=O)c3c(F)cc(F)cc3F)n2)CC1.CS(=O)(=O)O` [Example 1] here?
**A.** 238 ng·h/mL

**Q.** And the Cmax [1]?
**A.** 0.0999 µg/mL

**Q.** And the Tmax [1]?
**A.** 0.667 h

**Q.** And the Appearance ([2]; 0 day)?
**A.** white

**Q.** What about the Purity ([2]; 0 day) of the same compound?
**A.** 99.66%

**Q.** And the Appearance [2, 5]?
**A.** white

**Q.** And the Purity [2, 5]?
**A.** 99.71%

**Q.** And the Appearance [2, 6]?
**A.** white

**Q.** What about the Purity [2, 6] of the same compound?
**A.** 99.74%

**Q.** And the Appearance [2, 7]?
**A.** white

**Q.** What about the Purity [2, 7] of the same compound?
**A.** 99.77%

**Q.** And the Appearance [2, 8]?
**A.** white

**Q.** What about the Purity [2, 8] of the same compound?
**A.** 99.68%

**Q.** And the Appearance [2, 9]?
**A.** white

**Q.** What about the Purity [2, 9] of the same compound?
**A.** 99.71%

**Q.** What about the Appearance [2, 10] of the same compound?
**A.** white

**Q.** What about the Purity [2, 10] of the same compound?
**A.** 99.72%

**Q.** And the Appearance [2, 11]?
**A.** white

**Q.** What about the Purity [2, 11] of the same compound?
**A.** 99.73%

**Q.** What about the Appearance [2, 12] of the same compound?
**A.** white

**Q.** And the Purity [2, 12]?
**A.** 99.72%

**Q.** What about the Appearance [2, 13] of the same compound?
**A.** white

**Q.** What about the Purity [2, 13] of the same compound?
**A.** 99.79%

**Q.** What about the Appearance [2, 14] of the same compound?
**A.** white

**Q.** What about the Purity [2, 14] of the same compound?
**A.** 99.72%

**Q.** And the Appearance [2, 15]?
**A.** white

**Q.** And the Purity [2, 15]?
**A.** 99.74%

**Q.** And the Appearance [2, 16]?
**A.** white

**Q.** And the Purity [2, 16]?
**A.** 99.8%

**Q.** And the Appearance ([2]; Light, the 5th day)?
**A.** white

**Q.** And the Purity ([2]; Light, the 5th day)?
**A.** 99.59%

**Q.** And the Appearance ([2]; Light, the 10th day)?
**A.** white

**Q.** What about the Purity ([2]; Light, the 10th day) of the same compound?
**A.** 99.43%

**Q.** And the Appearance ([2]; Light, the 30th day)?
**A.** white

**Q.** What about the Purity ([2]; Light, the 30th day) of the same compound?
**A.** 97.66%

**Q.** What about the “Changes of appearance, purity and crystal form” value ([2]; high temperature, high humidity and light, 30 days) of the same compound?
**A.** no obvious changes

**Q.** What about the Hygroscopic feature [3] of the same compound?
**A.** no or almost no hygroscopicity

**Q.** What about the “Concentration of compound having formula (I) in saturated aqueous solution” value ([4]; 37° C. water, shaking for 24 h) of the same compound?
**A.** 300880 µg/mL

**Q.** Which “Concentration of compound having formula (I) in saturated aqueous solution” value ([4]; 37° C. water, shaking for 24 h) does the source give for `CN1CCC(=C(F)c2cccc(NC(=O)c3c(F)cc(F)cc3F)n2)CC1.O=S(=O)(O)c1ccccc1` [Example 3] here?
**A.** 1890 µg/mL

**Q.** For `CN1CCC(=C(F)c2cccc(NC(=O)c3c(F)cc(F)cc3F)n2)CC1` [Compound having formula (I), 2,4,6-trifluoro-N-(6-(fluoro(1-methylpiperidin-4-ylidene)methyl)pyridin-2-yl)benzamide], which AUC(0-t) ([1]; dog, plasma) is on record?
**A.** 117 ng·h/mL

**Q.** What about the Cmax ([1]; dog, plasma, read-out: Cmax) of the same compound?
**A.** 0.0328 µg/mL

**Q.** What about the Tmax ([1]; dog, plasma, read-out: Tmax) of the same compound?
**A.** 3.67 h

**Q.** And the “Water solubility (in words)” value [4]?
**A.** poor water solubility

**Q.** What about the solubility thermodynamic at 24 h ([4]; thermodynamic from solid, 37° C. water, shaking for 24 h, read-out: Concentration of compound having formula (I) in saturated aqueous solution) of the same compound?
**A.** 2590 µg/mL
